In US7645802B2 (Biovail Laboratories International SRL., priority 2005, dated 2010):
Structures can show the parent of a compound that is named as a salt. Where two headings read alike, the source gives them in different places. Marks after values point to notes of the source that are not given here.

Columns and labels:
[1] = cited from earlier work
[2] = moisture content by KF and pH (aq. 0.5%) of bupropion salts; assay type: physicochemical
Protocol: The eight salts were first evaluated by HPLC, KF, pH and DSC for purity, water content, aqueous pH and possible polymorphs.
(§1) The salts were analyzed by DSC (at 10° C./min from 30° C. up to 400° C.) and the pH (aq. 0.5%), and the moisture content by KF were also measured. The TGA was performed on the HCl, maleate, tosylate and HBr salts.

[3] = forced degradation stability study of bupropion salts in vials, 40 degrees C./75% RH, HPLC assay and impurities
[4] = Moisture content and pH of aqueous solutions of bupropion salts; assay type: physicochemical
[5] = system: chemically-induced seizures (induced by pentylenetetrazole) in mice; conditions: cited from earlier work
TGA of bupropion salts = assay type: physicochemical; conditions: for residue (TGA): at 400° C.; for weight lost (TGA): from room temperature to 100° C.
Protocol: 2-5 mg of each salt was placed in an aluminium pan and covered with its lid. DSC was run for each sample at the rate of 10 degrees C./min (for HBr salt, different rates were used to investigate for polymorphs) from 30 degrees C. to 400 degrees C. TGA was also used for each of the HBr, HCl, maleate and tosylate salts.
as §1

[6] = stability of polymorphic forms I, II, III by PXRD under ICH conditions; assay type: physicochemical; conditions: hydrobromide
Protocol: It is well known that organic molecules can crystallize into solid forms. Moreover the same organic compound may assume different crystalline arrangements in solid form, depending on the conditions under which the crystal product is formed. This phenomenon is commonly known as polymorphism. A study was undertaken to explore the polymorphic forms of bupropion hydrobromide. The crystal forms of the products obtained in this study were determined by powder X-ray diffraction (PXRD). A RIGAKU miniflex instrument (Radiation Cu Koc, generator 30 KV, filter Ni) was used to obtain the PXRD data.
The three polymorphic forms were subjected to stability testing. Samples of the polymorphic forms were subjected to ICH conditions (40° C., 75% R.H.) and PXRD data was obtained at 3 months and 6 months. […] Samples of the polymorphic forms II and III were tested after 1 month under the same accelerated stability conditions.
Samples of bupropion HBr form I were subjected to the conditions for the accelerated stability study as described in Example 10 and the shelf life stability study as described in Example 11.
10 g of bupropion HBr form I were dissolved in a mixture of 170 ml of acetone and 7 ml of water. The mixture was brought to reflux with dissolution of the solid. The solution was then cooled to room temperature. After one night the precipitate formed was filtered and dried at 40° C. under vacuum (30 mmHg) for 12 hours. 2.4 g of bupropion HBr form II were obtained. […] The crystalline form was checked after maintaining the product under these conditions for 1 month.
The mixture was brought to reflux obtaining complete dissolution of the solid. The solution was then cooled to room temperature without stirring and left in these conditions for 18 hours. The resulting crystalline solid was then filtered and dried under vacuum (30 mmHg) at 50° C. for 4 hours. 11.2 g of bupropion HBr form III were obtained. A sample of the product was prepared for stability testing by sealing the product in polyethylene bags, which in turn were placed in aluminium bags containing silica and sealed, and placed in the stability chamber in ICH conditions (40° C./75% R.H.). The crystalline form was checked after maintaining the product in these conditions for 1 month.

[7] = Sterol and Sterol Derivative Surfactants (Table 90)
[8] = Mono- and Diglyceride Surfactants (Table 89)
[9] = Sorbitan Fatty Acid Ester Surfactants (Table 96)
[10] = Sugar Ester Surfactants (Table 93)
[11] = After re crystallization (R&D), tested after 1 day
[12] = Lower Alcohol Fatty Acid Ester Surfactants (Table 97)
[13] = after re-crystallization in acetonitrile/hexane or acetonitrile/EtOAc
[14] = ICH conditions 40° C./75% R.H., 1 month
[15] = Polyethylene Glycol Alkyl Ethers (Table 92)

## Phytosterol
[1]; [7]
  HLB: <10

## Bupropion Fumarate
[2]; salt as received
  moisture content KF: 0.09%
  pH of the aqueous solution of 0.5%: 3.84
[3]
  In IPA/EtOH, 3-CBZ: order of impurity content: maleate > HBr > HCl > Fumarate
  In IPA/EtOH, 852U77: order of impurity content: fumarate > HBr ≈HCl ≈maleate ≈tosylate
  In IPA/EtOH, Total imp.: order of impurity content: fumarate > maleate > HBr > HCl > tosylate
  In water, 3-CBZ: order of impurity content: HCl > HBr≈maleate≈fumarate
  In water, 852U77: order of impurity content: fumarate > HBr > maleate > HCl
  In water, Total imp.: order of impurity content: fumarate > HBr > HCl > tosylate > maleate

## PEG-25 phyto sterol
[1]; [7]
  HLB: >10

## CCCCCCCCCCCCCCCCCC(=O)OCC(O)CO (centres unmarked) [Glycerol monostearate]
[1]; [8]
  HLB: 5-9

## Distearin
[1]; [8]
  HLB: <10

## CCCCC/C=C\C/C=C\CCCCCCCC(=O)OCC(O)CO (centres unmarked) [Glycerol monolinoleate]
[1]; [8]
  HLB: 3-4

## PEG-24 cholesterol ether
[1]; [7]
  HLB: >10

## Sorbitan trioleate
[1]; [9]
  HLB: 4.3

## CC(NC(C)(C)C)C(=O)c1cccc(Cl)c1.O=C(O)CC(O)(CC(=O)O)C(=O)O (centres unmarked) [Bup-Citrate (I)]
[4]; Original (Initial APIs)
  moisture content KF: 0.23%
  pH (aq. 0.5%): 3.89

## CCCCCCCCCCCCCCCC(=O)OCC(O)CO (centres unmarked) [Glycerol monopalmitate]
[1]; [8]
  HLB: 4

## CCCCCC(=O)OCC(O)CO (centres unmarked) [Monocaproin (C6)]
[1]; [8]
  HLB: <10

## Sucrose distearate
[1]; [10]
  HLB: 3

## CCCCCCCCCCCCCCCC(=O)OC[C@@H](O)[C@H]1OC[C@H](O)[C@H]1O [Sorbitan monopalmitate]
[1]; [9]
  HLB: 6.7

## CC(NC(C)(C)C)C(=O)c1cccc(Cl)c1.Cc1ccc(S(=O)(=O)O)cc1 (centres unmarked) [Bup-Tosylate]
[4]; After re crystallization (R&D), tested after 2 Months
  moisture content KF: 0.18%
[4]; [11]
  moisture content KF: 023%
  pH (aq. 0.5%): 5.88
[4]; Original (Initial APIs)
  moisture content KF: 1.71* %
  pH (aq. 0.5%): 5.56

## CCCCCCCCCCCC(=O)OCC(O)CO (centres unmarked) [Glyceryl monolaurate]
[1]; [8]
  HLB: 6.8

## CCCCCCCC/C=C\CCCCCCCC(=O)[O-].[Na+] [Sodium oleate]
[1]; Ionic Surfactants (Table 98)
  HLB: 18

## CC(NC(C)(C)C)C(=O)c1cccc(Cl)c1.Cl (centres unmarked) [Bup-HCl]
[4]; Original (Initial APIs)
  moisture content KF: 0.0%
  pH (aq. 0.5%): 5.90

## CCCCCCCC/C=C/CCCCCCCC(=O)OCC(O)CO (centres unmarked) [Monoelaidin (C18:1)]
[1]; [8]
  HLB: <10

## Br.CC(NC(C)(C)C)C(=O)c1cccc(Cl)c1 (centres unmarked) [Bup-HBr]
[4]; Original (Initial APIs)
  moisture content KF: 0.00%

## Caprylic/capric glycerides
[1]; [8]
  HLB: <10

## Br [bromide]
[5]
  ED50 / therapeutic dose level against pentylenetetrazole-induced seizures: 910 mg/kg

## Bupropion maleate
[2]; salt as received
  moisture content KF: 0.10%
  pH of the aqueous solution of 0.5%: 4.29
TGA of bupropion salts
  thermally stable to at least (TGA): at least 150 °C
  residue (TGA): minimal residues
  weight lost (TGA): 1.3%
[3]
  In IPA/EtOH, 3-CBZ: order of impurity content: maleate > HBr > HCl > Fumarate
  In IPA/EtOH, 852U77: order of impurity content: fumarate > HBr ≈HCl ≈maleate ≈tosylate
  In IPA/EtOH, Total imp.: order of impurity content: fumarate > maleate > HBr > HCl > tosylate
  In water, 3-CBZ: order of impurity content: HCl > HBr≈maleate≈fumarate
  In water, 852U77: order of impurity content: fumarate > HBr > maleate > HCl
  In water, Total imp.: order of impurity content: fumarate > HBr > HCl > tosylate > maleate

## CCCCCCCC/C=C\CCCCCCCC(=O)OCC(O)CO (centres unmarked) [Glyceryl monooleate (C18:1)]
[1]; [8]
  HLB: 3-4

## CCCCCCCC(=O)OCC(O)CO (centres unmarked) [Glyceryl caprylate]
[1]; [8]
  HLB: 5-6

## CCCCCCCCCCCC(=O)OCC(O)CO (centres unmarked) [Glyceryl laurate]
[1]; [8]
  HLB: 4

## CCCCCCCCCCCCCC(=O)OC(C)C [Isopropyl myristate]
[1]; [12]
  HLB: <10

## CCCCC/C=C\C/C=C\CCCCCCCC(=O)OC(C)C [Isopropyl linoleate]
[1]; [12]
  HLB: <10

## CCCCCCCCCCCC(=O)OCC(O)CO (centres unmarked) [Monolaurin]
[1]; [8]
  HLB: <10

## CC(NC(C)(C)C)C(=O)c1cccc(Cl)c1.O=C(O)/C=C\C(=O)O (centres unmarked) [Bup-Maleate]
[4]; Original (Initial APIs)
  moisture content KF: 0.10%
  pH (aq. 0.5%): 4.29

## CCCCCCCC(=O)OCC(O)CO (centres unmarked) [Monocaprylin]
[1]; [8]
  HLB: <10

## Sucrose monopalmitate
[1]; [10]
  HLB: >10

## PEG-10 soya sterol
[1]; [7]
  HLB: <10

## Bupropion tosylate
[2]; [13]
  moisture content KF: 0.23%
  pH: 5.88
[2]; re-crystallized sample retested after two months
  moisture content KF: 0.18%
[2]; salt as received
  moisture content KF: 1.71%
  pH of the aqueous solution of 0.5%: 5.56
TGA of bupropion salts
  residue (TGA): 10.3%
  weight lost (TGA): 1.3%
[3]
  In IPA/EtOH, 852U77: order of impurity content: fumarate > HBr ≈HCl ≈maleate ≈tosylate
  In IPA/EtOH, Total imp.: order of impurity content: fumarate > maleate > HBr > HCl > tosylate
  In water, Total imp.: order of impurity content: fumarate > HBr > HCl > tosylate > maleate

## CC(=O)OCC(O)CO (centres unmarked) [Glyceryl acetate]
[1]; [8]
  HLB: <10

## CCCCCCCCCCCCOS(=O)(=O)[O-].[Na+] [Sodium lauryl sulfate (dodecyl)]
[1]; Ionic Surfactants (Table 98)
  HLB: 40

## Sorbitan monoisostearate
[1]; [9]
  HLB: 4.7

## CC(NC(C)(C)C)C(=O)c1cccc(Cl)c1 (centres unmarked) [bupropion HBr form II, bupropion hydrobromide]
[6]; [14]
  PXRD profile after storage (polymorph stability): still in form II
[6]; ICH conditions 40° C./75% R.H., 1 month, listed as Polymorphic form II
  PXRD profile after storage (polymorph stability): no change in the PXRD profile

## CCCCCCCCCCCCCC(=O)OCC(O)CO (centres unmarked) [Glyceryl monomyristate (C14)]
[1]; [8]
  HLB: 3-4

## PEG-5 oleyl ether
[1]; [15]
  HLB: <10

## Glyceryl palmitic/stearic
[1]; [8]
  HLB: <10

## Sorbitan sesquistearate
[1]; [9]
  HLB: 4.2

## PEG-3 oleyl ether
[1]; [15]
  HLB: <10

## CC(NC(C)(C)C)C(=O)c1cccc(Cl)c1 (centres unmarked) [bupropion HBr form I, bupropion hydrobromide]
[6]; 40° C., 75% R.H. (b1144 also 25° C./60% RH), 3 months and 6 months
  PXRD profile after storage (polymorph stability): gave the same results
[6]; 40° C., 75% R.H. (b1144 also 25° C./60% RH), 3 months and 6 months, listed as polymorphic form I
  PXRD profile after storage (polymorph stability): same PXRD profile

## Glycerol monooleate/linoleate
[1]; [8]
  HLB: 3-4

## Sucrose dipalmitate
[1]; [10]
  HLB: 7.4

## CCCCC/C=C\C/C=C\CCCCCCCC(=O)OCC [Ethyl linoleate]
[1]; [12]
  HLB: <10

## CC(NC(C)(C)C)C(=O)c1cccc(Cl)c1 (centres unmarked) [bupropion HBr form III, bupropion hydrobromide]
[6]; [14]
  PXRD profile after storage (polymorph stability): not stable in this form under these conditions
[6]; ICH conditions 40° C./75% R.H., 1 month, listed as form III
  PXRD profile after storage (polymorph stability): conversion to form II

## Glyceryl mono-, dioleate
[1]; [8]
  HLB: <10

## PEG-4 lauryl ether
[1]; [15]
  HLB: 9.7

## Glyceryl dioleate
[1]; [8]
  HLB: 3-4

## PEG-5 soya sterol
[1]; [7]
  HLB: <10

## PEG-30 soya sterol
[1]; [7]
  HLB: >10

## Sorbitan monostearate
[1]; [9]
  HLB: 4.7

## PEG-20 soya sterol
[1]; [7]
  HLB: <10

## PEG-30 cholestanol
[1]; [7]
  HLB: >10

## Mono-and diacetylated monoglycerides
[1]; [8]
  HLB: 3.8-4

## CCCCCC[C@@H](O)C/C=C\CCCCCCCC(=O)OCC(O)CO (some centres unmarked) [Glyceryl ricinoleate]
[1]; [8]
  HLB: 6

## CC(NC(C)(C)C)C(=O)c1cccc(Cl)c1.CC(NC(C)(C)C)C(=O)c1cccc(Cl)c1.O=C(O)C(O)C(O)C(=O)O (centres unmarked) [Bup-Tartrate neutral]
[4]; Original (Initial APIs)
  moisture content KF: 0.14%
  pH (aq. 0.5%): 3.62

## CCCCCCCC/C=C\CCCCCCCC(=O)OCC [Ethyl oleate]
[1]; [12]
  HLB: <10

## CCCCCCCCCC(=O)OCC(O)CO (centres unmarked) [Monocaprin]
[1]; [8]
  HLB: <10

## Sorbitan monooleate
[1]; [9]
  HLB: 4.3
